# Assay results published in publication PMC5218480 (PLoS ONE, 2017).
# Tested on: MV-4-11 cells
# Assay: Gene expression microarray analysis (Affymetrix PrimeView) and GSEA
# Type: cell-based, human
# Design: RFU PODN (11730768_x_at) / Fold change /veh PODN (11730768_x_at) / RFU LINC00158 (11744669_a_at) / Fold change /veh LINC00158 (11744669_a_at) / RFU DUSP10 (11751237_a_at) / Fold change /veh DUSP10 (11751237_a_at) / RFU ID3 (11757404_x_at) / Fold change /veh ID3 (11757404_x_at) / RFU PLEKHG5 (11737974_s_at) / Fold change /veh PLEKHG5 (11737974_s_at) / RFU LRRC4B (11730491_at) / Fold change /veh LRRC4B (11730491_at) / RFU GIMAP4 (11747438_a_at) / Fold change /veh GIMAP4 (11747438_a_at) / RFU KRT8 (11758183_x_at) / Fold change /veh KRT8 (11758183_x_at) / RFU CNN1 (11734310_a_at) / Fold change /veh CNN1 (11734310_a_at) / RFU VPS37D (11726825_at) / Fold change /veh VPS37D (11726825_at) / RFU C10orf10 (11716522_x_at) / Fold change /veh C10orf10 (11716522_x_at) / RFU KIR2DL2 /// KIR2DL4 /// KIR2DL5A /// KIR2DL5B /// KIR2DS1 /// KIR2DS2 /// KIR2DS3 /// KIR2DS4 /// KIR3DL3 /// KIR3DL3 /// KIR3DS1 (11738374_at) / Fold change /veh KIR2DL2 /// KIR2DL4 /// KIR2DL5A /// KIR2DL5B /// KIR2DS1 /// KIR2DS2 /// KIR2DS3 /// KIR2DS4 /// KIR3DL3 /// KIR3DL3 /// KIR3DS1 (11738374_at) / RFU C1QL1 (11718748_at) / Fold change /veh C1QL1 (11718748_at) / RFU TMPRSS4 (11747572_a_at) / Fold change /veh TMPRSS4 (11747572_a_at) / RFU HAMP (11756126_x_at) / Fold change /veh HAMP (11756126_x_at) / RFU RNFT2 (11725882_a_at) / Fold change /veh RNFT2 (11725882_a_at) / RFU NR4A2 (11747474_a_at) / Fold change /veh NR4A2 (11747474_a_at) / RFU ABCC12 (11746883_a_at) / Fold change /veh ABCC12 (11746883_a_at) / RFU TMEM136 (11760407_x_at) / Fold change /veh TMEM136 (11760407_x_at) / RFU CLDN22 /// WWC2 (11732394_at) / Fold change /veh CLDN22 /// WWC2 (11732394_at) / RFU HLA-DPB1 (11760878_x_at) / Fold change /veh HLA-DPB1 (11760878_x_at) / RFU SPINT1 (11716480_a_at) / Fold change /veh SPINT1 (11716480_a_at) / RFU GAP43 (11754022_s_at) / Fold change /veh GAP43 (11754022_s_at) / RFU A4GNT (11735810_at) / Fold change /veh A4GNT (11735810_at) / RFU PRB3 (11715151_x_at) / Fold change /veh PRB3 (11715151_x_at) / RFU TUBB4B (11761932_at) / Fold change /veh TUBB4B (11761932_at) / RFU CAPN14 (11732068_a_at) / Fold change /veh CAPN14 (11732068_a_at) / RFU TMCC2 (11721928_a_at) / Fold change /veh TMCC2 (11721928_a_at) / RFU IRGQ (11745062_a_at) / Fold change /veh IRGQ (11745062_a_at) / RFU FAM174B (11720279_a_at) / Fold change /veh FAM174B (11720279_a_at) / RFU TMPRSS4 (11748680_a_at) / Fold change /veh TMPRSS4 (11748680_a_at) / RFU FAM212B (11763350_a_at) / Fold change /veh FAM212B (11763350_a_at) / RFU PLEKHG5 (11743358_a_at) / Fold change /veh PLEKHG5 (11743358_a_at) / RFU ZSCAN30 (11745921_a_at) / Fold change /veh ZSCAN30 (11745921_a_at) / RFU CMKLR1 (11741424_a_at) / Fold change /veh CMKLR1 (11741424_a_at) / RFU LOC101060620 /// MAPK8IP1 (11723275_at) / Fold change /veh LOC101060620 /// MAPK8IP1 (11723275_at) / RFU SPTSSB (11747773_x_at) / Fold change /veh SPTSSB (11747773_x_at) / RFU PRSS12 (11739890_at) / Fold change /veh PRSS12 (11739890_at) / RFU BIN1 (11741810_x_at) / Fold change /veh BIN1 (11741810_x_at) / RFU WNT11 (11732464_a_at) / Fold change /veh WNT11 (11732464_a_at) / RFU C10orf10 (11716521_a_at) / Fold change /veh C10orf10 (11716521_a_at) / RFU C5orf56 (11738089_at) / Fold change /veh C5orf56 (11738089_at) / RFU CYB561 (11721691_x_at) / Fold change /veh CYB561 (11721691_x_at) / RFU ANKRD19P (11752326_a_at) / Fold change /veh ANKRD19P (11752326_a_at) / RFU OR2T12 /// OR2T33 /// OR2T8 (11738714_s_at) / Fold change /veh OR2T12 /// OR2T33 /// OR2T8 (11738714_s_at) / RFU VCAN (11748164_a_at) / Fold change /veh VCAN (11748164_a_at) / RFU JSRP1 (11732532_at) / Fold change /veh JSRP1 (11732532_at) / RFU KRTAP10-11 (11738290_x_at) / Fold change /veh KRTAP10-11 (11738290_x_at) / RFU MYO3A (11730013_a_at) / Fold change /veh MYO3A (11730013_a_at) / RFU EBF3 (11725865_a_at) / Fold change /veh EBF3 (11725865_a_at) / RFU CAMK2N1 (11719241_x_at) / Fold change /veh CAMK2N1 (11719241_x_at) / RFU C5orf56 (11738088_a_at) / Fold change /veh C5orf56 (11738088_a_at) / RFU OLFML3 (11715873_a_at) / Fold change /veh OLFML3 (11715873_a_at) / RFU LOC100653217 /// NTM (11731650_a_at) / Fold change /veh LOC100653217 /// NTM (11731650_a_at) / RFU MAPK11 (11762145_a_at) / Fold change /veh MAPK11 (11762145_a_at) / RFU FIZ1 (11724087_x_at) / Fold change /veh FIZ1 (11724087_x_at) / RFU OASL (11726364_x_at) / Fold change /veh OASL (11726364_x_at) / RFU SOX15 (11748057_x_at) / Fold change /veh SOX15 (11748057_x_at) / RFU CD79A (11719716_a_at) / Fold change /veh CD79A (11719716_a_at) / RFU HIST1H1D (11736915_at) / Fold change /veh HIST1H1D (11736915_at) / RFU CASKIN2 (11723855_a_at) / Fold change /veh CASKIN2 (11723855_a_at) / RFU LOC730098 (11760151_x_at) / Fold change /veh LOC730098 (11760151_x_at) / RFU OR4N2 (11742367_at) / Fold change /veh OR4N2 (11742367_at) / RFU PRRT2 (11749266_a_at) / Fold change /veh PRRT2 (11749266_a_at) / RFU SNX32 (11753110_a_at) / Fold change /veh SNX32 (11753110_a_at) / RFU CDHR5 (11726645_a_at) / Fold change /veh CDHR5 (11726645_a_at) / RFU RCAN1 (11760418_a_at) / Fold change /veh RCAN1 (11760418_a_at) / RFU FAM167A (11723789_a_at) / Fold change /veh FAM167A (11723789_a_at) / RFU FAM26E (11764081_at) / Fold change /veh FAM26E (11764081_at) / RFU ISYNA1 (11749810_s_at) / Fold change /veh ISYNA1 (11749810_s_at) / RFU ACY1 (11761880_at) / Fold change /veh ACY1 (11761880_at) / RFU 11764098_at / Fold change /veh 11764098_at / RFU SAMD14 (11745864_x_at) / Fold change /veh SAMD14 (11745864_x_at) / RFU NPB (11741838_a_at) / Fold change /veh NPB (11741838_a_at) / RFU TMPRSS6 (11731388_a_at) / Fold change /veh TMPRSS6 (11731388_a_at) / RFU KRTAP10-2 (11738614_at) / Fold change /veh KRTAP10-2 (11738614_at) / RFU ARHGAP8 /// PRR5-ARHGAP8 (11727945_x_at) / Fold change /veh ARHGAP8 /// PRR5-ARHGAP8 (11727945_x_at) / RFU KRTAP5-7 /// NADSYN1 (11734609_at) / Fold change /veh KRTAP5-7 /// NADSYN1 (11734609_at) / RFU RASL12 (11751679_a_at) / Fold change /veh RASL12 (11751679_a_at) / RFU CDKN2B (11736163_a_at) / Fold change /veh CDKN2B (11736163_a_at) / RFU PRF1 (11729649_at) / Fold change /veh PRF1 (11729649_at) / RFU, ZNF638 /// ZNF638-IT1 / Fold change vs veh, ZNF638 /// ZNF638-IT1 / RFU, PANK3 / Fold change vs veh, PANK3 / RFU, SH3YL1 / Fold change vs veh, SH3YL1 / RFU, ZEB2 / Fold change vs veh, ZEB2 / RFU, NRIP1 / Fold change vs veh, NRIP1 / RFU, PTTG1IP / Fold change vs veh, PTTG1IP / RFU, CAPN2 / Fold change vs veh, CAPN2 / RFU, MED14 / Fold change vs veh, MED14 / RFU, SNORA58 / Fold change vs veh, SNORA58 / RFU, C1orf63 / Fold change vs veh, C1orf63 / RFU, LRRFIP1 / Fold change vs veh, LRRFIP1 / RFU, NDUFAF7 / Fold change vs veh, NDUFAF7 / RFU, SLC12A2 / Fold change vs veh, SLC12A2 / RFU, IBTK / Fold change vs veh, IBTK / RFU, ESF1 / Fold change vs veh, ESF1 / Fold change vs veh, TMEM50B / RFU, TAOK1 / Fold change vs veh, TAOK1 / RFU, ACBD3 / Fold change vs veh, ACBD3 / RFU, TMA16 / Fold change vs veh, TMA16 / RFU, RWDD3 / Fold change vs veh, RWDD3 / RFU, BCAT1 / Fold change vs veh, BCAT1 / RFU, EDEM3 / Fold change vs veh, EDEM3 / RFU, TMEM33 / Fold change vs veh, TMEM33 / RFU, WDR75 / Fold change vs veh, WDR75 / RFU, AHCTF1 / Fold change vs veh, AHCTF1 / RFU, TFRC / Fold change vs veh, TFRC / RFU, ZDHHC17 / Fold change vs veh, ZDHHC17 / RFU, NOM1 / Fold change vs veh, NOM1 / RFU, ARL8B / Fold change vs veh, ARL8B / RFU, ZBTB11 / Fold change vs veh, ZBTB11 / RFU, TAMM41 / Fold change vs veh, TAMM41 / RFU, KIAA1704 /// LOC100996395 / Fold change vs veh, KIAA1704 /// LOC100996395 / RFU, ING1 / Fold change vs veh, ING1 / RFU, TRMT61B / Fold change vs veh, TRMT61B / RFU, FUBP3 / Fold change vs veh, FUBP3 / RFU, TP53 / Fold change vs veh, TP53 / RFU, TNKS2 / Fold change vs veh, TNKS2 / RFU, ZFP14 / Fold change vs veh, ZFP14 / RFU, ACTR2 / Fold change vs veh, ACTR2 / RFU, PPP3R1 / Fold change vs veh, PPP3R1 / RFU, PIK3R1 / Fold change vs veh, PIK3R1 / RFU, HNRNPA1 / Fold change vs veh, HNRNPA1 / RFU, RNF170 / Fold change vs veh, RNF170 / RFU, ZNF28 / Fold change vs veh, ZNF28 / RFU, RNGTT / Fold change vs veh, RNGTT / RFU, OGT / Fold change vs veh, OGT / RFU, BRD1 / Fold change vs veh, BRD1 / RFU, MARS / Fold change vs veh, MARS / RFU, ZNF655 / Fold change vs veh, ZNF655 / RFU, FAHD1 / Fold change vs veh, FAHD1 / RFU, BDP1 / Fold change vs veh, BDP1 / RFU, LRRCC1 / Fold change vs veh, LRRCC1 / RFU, ARID1A / Fold change vs veh, ARID1A / RFU, ZNF146 / Fold change vs veh, ZNF146 / RFU, ZNF330 / Fold change vs veh, ZNF330 / RFU, GPN3 / Fold change vs veh, GPN3 / RFU, C9orf123 / Fold change vs veh, C9orf123 / RFU, N4BP2L2 / Fold change vs veh, N4BP2L2 / RFU, ARFIP1 / Fold change vs veh, ARFIP1 / RFU, FAM179B / Fold change vs veh, FAM179B / RFU, BCL10 / Fold change vs veh, BCL10 / RFU, UHRF1BP1L / Fold change vs veh, UHRF1BP1L / RFU, BET1 / Fold change vs veh, BET1 / RFU, CNOT2 / Fold change vs veh, CNOT2 / RFU, ZNF268 / Fold change vs veh, ZNF268 / Fold change vs veh, ZNF507 / RFU, DGCR2 / Fold change vs veh, DGCR2 / RFU, WDSUB1 / Fold change vs veh, WDSUB1 / Fold change vs veh, HSP90B1 /// MIR3652 / RFU, ADSS / Fold change vs veh, ADSS / RFU, GK / Fold change vs veh, GK / RFU, ZNF148 / Fold change vs veh, ZNF148 / RFU, TAF9 / Fold change vs veh, TAF9 / RFU, SLC1A5 / Fold change vs veh, SLC1A5 / RFU, SLMO2 / Fold change vs veh, SLMO2 / RFU, ABCC4 / Fold change vs veh, ABCC4 / RFU, LOC101060439 /// RAP1B / Fold change vs veh, LOC101060439 /// RAP1B / RFU, RFX7 / Fold change vs veh, RFX7 / RFU, GTPBP10 / Fold change vs veh, GTPBP10 / RFU, CNEP1R1 / Fold change vs veh, CNEP1R1 / RFU, BIVM-ERCC5 /// ERCC5 / Fold change vs veh, BIVM-ERCC5 /// ERCC5 / RFU, ILF3 / Fold change vs veh, ILF3 / RFU 11762660_at / Fold change /veh 11762660_at / RFU VCAN (11757783_s_at) / Fold change /veh VCAN (11757783_s_at) / RFU DDX43 (11728927_at) / Fold change /veh DDX43 (11728927_at) / RFU KRT8 (11758188_x_at) / Fold change /veh KRT8 (11758188_x_at) / RFU NKD1 (11759106_at) / Fold change /veh NKD1 (11759106_at) / RFU SRD5A1 (11742802_a_at) / Fold change /veh SRD5A1 (11742802_a_at) / RFU TPSAB1 /// TPSB2 (11721975_s_at) / Fold change /veh TPSAB1 /// TPSB2 (11721975_s_at) / RFU GSTM3 (11746129_a_at) / Fold change /veh GSTM3 (11746129_a_at) / RFU IL23R (11737362_x_at) / Fold change /veh IL23R (11737362_x_at) / RFU TMEM51 (11727254_a_at) / Fold change /veh TMEM51 (11727254_a_at) / RFU PIWIL2 (11732686_x_at) / Fold change /veh PIWIL2 (11732686_x_at) / RFU ORM1 (11744905_x_at) / Fold change /veh ORM1 (11744905_x_at) / RFU CCDC152 (11743942_at) / Fold change /veh CCDC152 (11743942_at) / RFU ECM1 (11717891_a_at) / Fold change /veh ECM1 (11717891_a_at) / RFU IL23R (11748794_a_at) / Fold change /veh IL23R (11748794_a_at) / RFU TNFAIP8L3 (11732012_x_at) / Fold change /veh TNFAIP8L3 (11732012_x_at) / RFU MBOAT4 (11741988_at) / Fold change /veh MBOAT4 (11741988_at) / RFU 11764193_at / Fold change /veh 11764193_at / RFU TMEM53 (11763286_at) / Fold change /veh TMEM53 (11763286_at) / RFU MAGEB2 (11727129_at) / Fold change /veh MAGEB2 (11727129_at) / RFU TMEM200A (11744735_a_at) / Fold change /veh TMEM200A (11744735_a_at) / RFU CCDC152 (11751479_a_at) / Fold change /veh CCDC152 (11751479_a_at) / RFU FAM211A (11726209_a_at) / Fold change /veh FAM211A (11726209_a_at) / RFU RGS16 (11746705_a_at) / Fold change /veh RGS16 (11746705_a_at) / RFU VCAN (11755009_s_at) / Fold change /veh VCAN (11755009_s_at) / RFU RHOB (11743442_s_at) / Fold change /veh RHOB (11743442_s_at) / RFU RGS16 (11720943_a_at) / Fold change /veh RGS16 (11720943_a_at) / RFU RGS16 (11720944_at) / Fold change /veh RGS16 (11720944_at) / RFU, VPS4B / Fold change vs veh, VPS4B / RFU, CREB1 / Fold change vs veh, CREB1 / RFU, DNAJC13 / Fold change vs veh, DNAJC13 / RFU, GNAQ / Fold change vs veh, GNAQ / RFU, CDK5R1 / Fold change vs veh, CDK5R1 / RFU, ZRANB3 / Fold change vs veh, ZRANB3 / RFU, CUL4A / Fold change vs veh, CUL4A / RFU, CCNY / Fold change vs veh, CCNY / RFU, UFL1 / Fold change vs veh, UFL1 / RFU, COG3 / Fold change vs veh, COG3 / RFU, DIAPH2 / Fold change vs veh, DIAPH2 / RFU, SKA2 / Fold change vs veh, SKA2 / RFU, AFF3 / Fold change vs veh, AFF3 / RFU, LMF1 / Fold change vs veh, LMF1 / RFU, IPO11 / Fold change vs veh, IPO11 / RFU, DFFB / Fold change vs veh, DFFB / RFU, FOXP1 / Fold change vs veh, FOXP1 / RFU, CARD8 / Fold change vs veh, CARD8 / RFU, STRN3 / Fold change vs veh, STRN3 / RFU, ADK / Fold change vs veh, ADK / RFU, RASSF2 / Fold change vs veh, RASSF2 / RFU, WIPF1 / Fold change vs veh, WIPF1 / RFU, LARP1B / Fold change vs veh, LARP1B / RFU, RASA1 / Fold change vs veh, RASA1 / RFU, RB1 / Fold change vs veh, RB1 / RFU, PPFIA1 / Fold change vs veh, PPFIA1 / RFU, MAT2A / Fold change vs veh, MAT2A / RFU, CCT5 / Fold change vs veh, CCT5 / RFU, WDR92 / Fold change vs veh, WDR92 / RFU, CUX1 / Fold change vs veh, CUX1 / RFU, TTC7A / Fold change vs veh, TTC7A / RFU, TMEM135 / Fold change vs veh, TMEM135 / RFU, DEPTOR / Fold change vs veh, DEPTOR / RFU, CPM / Fold change vs veh, CPM / RFU, DNAJB6 / Fold change vs veh, DNAJB6 / RFU, CACNA2D3 / Fold change vs veh, CACNA2D3 / RFU, DTX4 / Fold change vs veh, DTX4 / RFU, TFCP2 / Fold change vs veh, TFCP2 / RFU, GMCL1 /// GMCL1P1 / Fold change vs veh, GMCL1 /// GMCL1P1 / RFU, AEBP2 / Fold change vs veh, AEBP2 / RFU, SNHG1 /// SNORD22 /// SNORD25 /// SNORD26 /// SNORD27 /// SNORD28 /// SNORD29 /// SNORD31 / Fold change vs veh, SNHG1 /// SNORD22 /// SNORD25 /// SNORD26 /// SNORD27 /// SNORD28 /// SNORD29 /// SNORD31 / Fold change (Aza/veh), C12orf56 (ProbeSet 11735607_a_at) / Fold change (ACY-1035/veh), C12orf56 (ProbeSet 11735607_a_at) / Fold change (Aza/veh), FGFR1OP (ProbeSet 11751329_s_at) / Fold change (ACY-1035/veh), FGFR1OP (ProbeSet 11751329_s_at) / Fold change (Aza/veh), VPS36 (ProbeSet 11739960_a_at) / Fold change (ACY-1035/veh), VPS36 (ProbeSet 11739960_a_at) / RFU SYPL1 (11715823_x_at) / Fold change /veh SYPL1 (11715823_x_at) / RFU IGFBP7 (11715501_s_at) / Fold change /veh IGFBP7 (11715501_s_at) / RFU REEP3 (11722064_at) / Fold change /veh REEP3 (11722064_at) / RFU IGLL1 (11728026_x_at) / Fold change /veh IGLL1 (11728026_x_at): dose or concentration left out as unconfirmed
# Settings: ProbeSet 11740781_a_at; LIST B
compound,measurement,value
Nc1ccc(-c2cccs2)cc1NC(=O)c1ccc2c(c1)cc(C1CC1)n2CCN1CCOCC1 [ACY-1035],"Fold change vs veh, ILF3",0.88
